{"source": "patent US20230158102A1", "about": "(priority 2020, published 2023)", "key": {"SARS-CoV-2 (COVID-19)": {"test_system": "SARS-CoV-2 (COVID-19)", "experiment": "Study APLICOV-PC (NCT04382066): efficacy in patients hospitalised for COVID-19", "assay_type": "in vivo, human", "conditions": "for Patients discharged from hospital by Day 8, (%): 192 h; for Patients discharged from hospital by Day 31, (%) / Patients requiring oxygen therapy at Day 31, (%): 744 h"}, "SARS-CoV-2 [1]": {"test_system": "SARS-CoV-2", "experiment": "SARS-CoV-2 replication in human stem cell-derived pneumocyte like cells", "assay_type": "cell-based", "conditions": "10 nm plitidepsin for 1 hour before infection (4×10^4 pfu), 48 hour incubation", "experimental": "Several in vitro experiments aimed at determining the effect of plitidepsin on SARS-CoV-2 were carried out and are disclosed herein. […] In another study, human stem cell-derived pneumocyte like cells were prophylactically exposed to 10 nm plitidepsin for 1 hour and then infected with SARS-CoV-2 (4×10^4 plaque forming units). After a 48 hour incubation period, both antiviral and cytotoxic plitidepsin effects were determined."}, "HCoV-229E": {"test_system": "HCoV-229E", "assay_type": "cell-based"}, "THP-1 cells": {"test_system": "THP-1 cells", "experiment": "Proinflammatory cytokine secretion in stimulated THP-1 cells", "assay_type": "cell-based", "conditions": "THP-1 cells stimulated with pathogen-associated molecular patterns-mimicking compounds", "experimental": "In vitro studies were performed using THP-1 cells, a spontaneously immortalised monocyte-like cell line derived from the peripheral blood of a childhood case of acute monocytic leukaemia, that is widely used for investigating monocyte structure and function."}, "SARS-CoV-2 [2]": {"test_system": "SARS-CoV-2", "experiment": "Mouse model of adenovirus-mediated hACE2 infected with SARS-CoV-2", "assay_type": "in vivo"}, "[3]": {"experiment": "Storage stability of plitidepsin vials and reconstituted solution", "assay_type": "physicochemical", "experimental": "Plitidepsin will be labelled with the study protocol code, the batch number, the content, the expiry date, the storage conditions, the name of the investigator and the sponsor. The study drug will be labelled in accordance with Annex 13 of the European Good Manufacturing Practices. Plitidepsin should be stored between 2° C. and 8° C. and the vials should be kept in the outer carton to protect them from light. The drug in these conditions is stable for 60 months.\nAfter reconstitution of the 2 mg plitidepsin vial with 4 ml of the solution for reconstitution of macrogolglycerol ricinoleate/ethanol/water for injection, the reconstituted solution should be diluted and used immediately after preparation. If not used immediately, storage times and conditions until use are the responsibility of the user. […] If storage is required before administration, solutions should be stored refrigerated and protected from light and should be used within 24 hours after reconstitution."}, "in vitro": {"experiment": "in vitro", "conditions": "African green monkey"}, "CD45+ cells": {"test_system": "CD45+ cells", "experiment": "Ex vivo cytokine expression (IL 6, IL 10, TNFα) in LPS-B5 stimulated CD45+ cells from broncho-alveolar lavages of treated mice", "conditions": "CD45+ cells from plitidepsin treated mice", "text": "An ex vivo study assessed the effect of plitidepsin on expression of the cytokines IL 6, IL 10, and TNFα in the lungs of mice."}, "NFκB": {"test_system": "NFκB", "conditions": "tumour cells, early in vitro studies; cited from earlier work"}, "[4]": {"conditions": "cancer patients, single-agent plitidepsin; cited from earlier work"}}, "note": "Where two headings read alike, the source gives them in different places.", "data": [{"smiles": "CC[C@H](C)[C@H]1NC(=O)[C@@H](NC(=O)[C@@H](CC(C)C)N(C)C(=O)[C@@H]2CCCN2C(=O)C(C)=O)[C@@H](C)OC(=O)[C@H](Cc2ccc(OC)cc2)N(C)C(=O)[C@@H]2CCCN2C(=O)[C@H](CC(C)C)NC(=O)[C@@H](C)C(=O)[C@H](C(C)C)OC(=O)C[C@@H]1O", "note": "[PLD, (−)-(3S,6R,7S,10R,11S,15S,17S,20S,25aS)-11-hydroxy-3-(4-methoxybenzyl)-2,6,17-trimethyl-15-(1-methylethyl)-7-[[(2R)-4-methyl-2-[methyl[[(2S)-1-(2-oxopropanoyl)pyrrolidin-2-yl]carbonyl]amino]pentanoyl]amino]-10-[(1S)-1-methylpropyl]-20-(2-methylpropyl)tetradecahydro-15H-pyrrolo[2,1-f]-[1,15,4,7,10,20]dioxatetrazacyclotricosine-1,4,8,13,16,18,21(17H)-heptone]", "values": [{"measurement": "Patients requiring invasive mechanical ventilation and/or ICU admission from Day 1 to Day 15, (%)", "setting": "SARS-CoV-2 (COVID-19); 2.5 mg", "result": "(20.0) %"}, {"measurement": "Patients requiring invasive mechanical ventilation and/or ICU admission from Day 1 to Day 31, (%)", "setting": "SARS-CoV-2 (COVID-19); 2.5 mg", "result": "(20.0) %"}, {"measurement": "Patients requiring noninvasive mechanical ventilation from Day 1 to Day 7, (%)", "setting": "SARS-CoV-2 (COVID-19); 2.5 mg", "result": "(6.7) %"}, {"measurement": "Patients requiring noninvasive mechanical ventilation from Day 1 to Day 15, (%)", "setting": "SARS-CoV-2 (COVID-19); 2.5 mg", "result": "(13.3) %"}, {"measurement": "Patients requiring noninvasive mechanical ventilation from Day 1 to Day 31, (%)", "setting": "SARS-CoV-2 (COVID-19); 2.5 mg", "result": "(13.3) %"}, {"measurement": "Patients requiring oxygen therapy at Day 7, (%)", "setting": "SARS-CoV-2 (COVID-19); 2.5 mg, 168 h", "result": "(73.3) %"}, {"measurement": "Patients discharged from hospital by Day 8, (%)", "setting": "SARS-CoV-2 (COVID-19); 2.5 mg", "result": "(66.7) %"}, {"measurement": "Patients discharged from hospital by Day 15, (%)", "setting": "SARS-CoV-2 (COVID-19); 2.5 mg, 360 h", "result": "(73.3) %"}, {"measurement": "Patients requiring oxygen therapy at Day 15, (%)", "setting": "SARS-CoV-2 (COVID-19); 2.5 mg, 360 h", "result": "(26.7) %"}, {"measurement": "Patients discharged from hospital by Day 31, (%)", "setting": "SARS-CoV-2 (COVID-19); 2.5 mg", "result": "(86.7) %"}, {"measurement": "Patients requiring oxygen therapy at Day 31, (%)", "setting": "SARS-CoV-2 (COVID-19); 2.5 mg", "result": "(6.7) %"}, {"measurement": "Mean reduction in viral load by Day 7", "setting": "SARS-CoV-2 (COVID-19); 168 h", "result": "−3.1", "unit": "log10 copies/mL"}, {"measurement": "Patients requiring oxygen therapy at Day 7, (%)", "setting": "SARS-CoV-2 (COVID-19); 168 h", "result": "(70.5) %"}, {"measurement": "Patients discharged from hospital by Day 8, (%)", "setting": "SARS-CoV-2 (COVID-19)", "result": "(56.8) %"}, {"measurement": "Patients discharged from hospital by Day 15, (%)", "setting": "SARS-CoV-2 (COVID-19); 360 h", "result": "(81.8) %"}, {"measurement": "Patients requiring oxygen therapy at Day 15, (%)", "setting": "SARS-CoV-2 (COVID-19); 360 h", "result": "(20.5) %"}, {"measurement": "Patients with mild disease discharged by Day 15", "setting": "SARS-CoV-2 (COVID-19); 360 h", "result": 100, "unit": "%"}, {"measurement": "Patients with moderate disease discharged by Day 15", "setting": "SARS-CoV-2 (COVID-19); 360 h", "result": 82, "unit": "%"}, {"measurement": "Patients with severe disease discharged by Day 15", "setting": "SARS-CoV-2 (COVID-19); 360 h", "result": 57, "unit": "%"}, {"measurement": "Reduction in baseline viral load by Day 15", "setting": "SARS-CoV-2 (COVID-19); 360 h", "result": "−3.0", "unit": "log"}, {"measurement": "Patients discharged from hospital by Day 31, (%)", "setting": "SARS-CoV-2 (COVID-19)", "result": "(90.9) %"}, {"measurement": "Patients requiring oxygen therapy at Day 31, (%)", "setting": "SARS-CoV-2 (COVID-19)", "result": "(6.8) %"}, {"measurement": "Mean reduction in viral load by Day 15", "setting": "SARS-CoV-2 (COVID-19); across dose cohorts", "result": 4.5, "unit": "log10 copies/mL"}, {"measurement": "Replication of SARS-CoV-2", "setting": "SARS-CoV-2 [1]", "result": "completely eliminated replication of SARS-CoV-2"}, {"measurement": "Concentration as low as which an antiviral effect was induced", "setting": "HCoV-229E", "result": 0.5, "unit": "nM"}, {"measurement": "Secretion of proinflammatory cytokines", "setting": "THP-1 cells", "result": "significantly reduced the secretion of the proinflammatory cytokines"}, {"measurement": "Antiviral effects in vivo", "setting": "SARS-CoV-2 [2]", "result": "potent antiviral effects in vivo"}, {"measurement": "Stability of the drug on storage", "setting": "[3]; between 2° C. and 8° C., vials in the outer carton protected from light", "result": 60, "unit": "months"}, {"measurement": "Physical, chemical and microbiological stability of the reconstituted concentrated solution", "setting": "[3]; original vial under indoor light at room temperature", "result": 6, "unit": "hours"}, {"measurement": "Physical, chemical and microbiological stability of the reconstituted concentrated solution", "setting": "[3]; refrigerated conditions (5° C.±3° C.)", "result": 24, "unit": "hours"}, {"measurement": "Tolerability of treatment", "setting": "1.5, 2.0 and 2.5 mg daily for 3 days, 45 patients", "result": "well tolerated"}, {"measurement": "Prevalence of Grade ≥3 AEs", "setting": "1.5-mg cohort", "result": 33.3, "unit": "%"}, {"measurement": "Prevalence of Grade ≥3 AEs", "setting": "2.0-mg cohort", "result": 20.0, "unit": "%"}, {"measurement": "Prevalence of Grade ≥3 AEs", "setting": "2.5-mg cohort", "result": 40.0}, {"measurement": "Events of special interest: Grade ≥3 ALT elevation", "setting": "all cohorts", "result": 1, "unit": "case"}, {"measurement": "Patients unable to complete plitidepsin treatment", "setting": "all cohorts", "result": 1, "unit": "patient"}, {"measurement": "Patients who experienced Grade ≥3 AEs", "setting": "all cohorts (14/45)", "result": 31, "unit": "%"}, {"measurement": "Patients who experienced a treatment-related Grade ≥3 AE", "setting": "all cohorts, 45 patients", "result": 2, "unit": "patients"}, {"measurement": "Patients who experienced SAEs", "setting": "dosed at 1.5 mg", "result": 6, "unit": "patients"}, {"measurement": "Patients who experienced SAEs", "setting": "dosed at 2.0 mg", "result": 1, "unit": "patients"}, {"measurement": "Patients who experienced SAEs", "setting": "dosed at 2.5 mg", "result": 3, "unit": "patients"}, {"measurement": "Patients with a 2 grade increase in CPK", "setting": "human, in vivo", "result": 1, "unit": "patient"}, {"measurement": "Patients who experienced SAEs", "setting": "total", "result": 10, "unit": "patients"}, {"measurement": "CC50", "setting": "in vitro", "result": "178 to 431", "unit": "nM"}, {"measurement": "IL 6, IL 10 and TNFα production upon LPS-B5 stimulation compared with nonstimulated controls", "setting": "CD45+ cells", "result": "failed to show a marked increase in IL 6, IL 10, and TNFα"}, {"measurement": "Effect on NFκB", "setting": "NFκB", "result": "induces down-regulation of NFκB"}, {"measurement": "AE asthenia/fatigue", "setting": "[4]", "result": 83, "unit": "%"}, {"measurement": "AE constipation", "setting": "[4]", "result": 29, "unit": "%"}, {"measurement": "AE diarrhoea", "setting": "[4]", "result": 31, "unit": "%"}, {"measurement": "AE nausea", "setting": "[4]", "result": 64, "unit": "%"}, {"measurement": "AE pyrexia", "setting": "[4]", "result": 28, "unit": "%"}, {"measurement": "AE vomiting", "setting": "[4]", "result": 38, "unit": "%"}]}]}
